One block for each molecule: values may come before it. Calls of active or inactive are those of the source.
Legend:
[1] = target: Lysosomal acid glucosylceramidase (Homo sapiens, UniProt P04062); test: Dose response cell-based high throughput screening assay to identify enhancers of beta-glucosidase activity. [Related pubchem assays: 784 ]; type: functional
[2] = target: Dual specificity protein phosphatase 3 (Homo sapiens, UniProt P51452); test: SAR VHR1 Fluorescent Assay for In Vitro dose response studies Set 2. [Related pubchem assays (depositor defined):AID1654, AID1661, AID1878]; type: functional
Chain of Dual specificity protein phosphatase 3 (P51452 whole entry): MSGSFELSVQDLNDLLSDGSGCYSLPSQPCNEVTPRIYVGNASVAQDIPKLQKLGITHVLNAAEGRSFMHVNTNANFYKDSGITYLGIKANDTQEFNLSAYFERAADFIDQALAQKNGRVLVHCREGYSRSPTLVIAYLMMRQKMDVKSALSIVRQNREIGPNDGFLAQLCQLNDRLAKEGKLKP

[3] = target: T1, Tyrosine-protein phosphatase non-receptor type 7 (Homo sapiens, UniProt P35236); test: SAR analysis of chemical inhibitors of HePTP using a Fluorescent assay - Set 2. [Related pubchem assays (depositor defined):AID1059, AID1077, AID1661, AID2085, AID521]; type: functional
T1 sequence (P35236 whole entry): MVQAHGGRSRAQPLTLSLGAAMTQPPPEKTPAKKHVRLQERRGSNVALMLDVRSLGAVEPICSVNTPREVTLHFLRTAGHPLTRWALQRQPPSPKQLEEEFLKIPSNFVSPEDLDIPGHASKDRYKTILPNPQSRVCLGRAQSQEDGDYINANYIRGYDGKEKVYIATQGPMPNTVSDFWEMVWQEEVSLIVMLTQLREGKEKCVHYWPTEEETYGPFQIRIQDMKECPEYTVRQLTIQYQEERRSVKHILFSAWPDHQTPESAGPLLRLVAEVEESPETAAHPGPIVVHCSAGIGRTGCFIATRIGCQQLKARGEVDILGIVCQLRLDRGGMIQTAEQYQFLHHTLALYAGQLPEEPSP

BJ [4] = test: cells; type: functional, cell-based; conditions: Homo sapiens
[5] = inhibitors of intracellular T. cruzi replication, confirmation, NIH3T3 host cells, beta-gal luminescence (AID 2044); type: functional, cell-based;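 note: intracellular parasites grown in NIH/3T3 mouse fibroblasts as host cells; luminescent beta-galactosidase reporter signal from transgenic T. cruzi replicating inside host cells; inhibitors lower the luminescence signal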
BJ [6] = test: cytotoxicity toward BJ-TERT fibroblasts, dose response, cell-based, RAS-independent, luminescence (AID 1933); type: functional; conditions: Homo sapiens
[7] = cytotoxicity toward DRD oncogenic fibroblasts, dose response, cell-based, non-viral oncogenic, luminescence (AID 1934); type: functional; conditions: Homo sapiens
BJ [8] = test: cytotoxicity toward BJ-TERT-LT-ST fibroblasts, dose response, cell-based, RAS-independent, luminescence (AID 1935); type: functional; conditions: Homo sapiens;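 note: BJ fibroblasts immortalized with TERT plus LT and ST oncogenes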
[9] = target: T2, Short transient receptor potential channel 4 (Mus musculus, UniProt Q9QUQ5); test: mouse TRPC4 channel activators, dose response, cell-based, HEK293 TRPC4/mu-opioid, Fluo-4 calcium (AID 434937); type: functional
T2 sequence (Q9QUQ5 whole entry): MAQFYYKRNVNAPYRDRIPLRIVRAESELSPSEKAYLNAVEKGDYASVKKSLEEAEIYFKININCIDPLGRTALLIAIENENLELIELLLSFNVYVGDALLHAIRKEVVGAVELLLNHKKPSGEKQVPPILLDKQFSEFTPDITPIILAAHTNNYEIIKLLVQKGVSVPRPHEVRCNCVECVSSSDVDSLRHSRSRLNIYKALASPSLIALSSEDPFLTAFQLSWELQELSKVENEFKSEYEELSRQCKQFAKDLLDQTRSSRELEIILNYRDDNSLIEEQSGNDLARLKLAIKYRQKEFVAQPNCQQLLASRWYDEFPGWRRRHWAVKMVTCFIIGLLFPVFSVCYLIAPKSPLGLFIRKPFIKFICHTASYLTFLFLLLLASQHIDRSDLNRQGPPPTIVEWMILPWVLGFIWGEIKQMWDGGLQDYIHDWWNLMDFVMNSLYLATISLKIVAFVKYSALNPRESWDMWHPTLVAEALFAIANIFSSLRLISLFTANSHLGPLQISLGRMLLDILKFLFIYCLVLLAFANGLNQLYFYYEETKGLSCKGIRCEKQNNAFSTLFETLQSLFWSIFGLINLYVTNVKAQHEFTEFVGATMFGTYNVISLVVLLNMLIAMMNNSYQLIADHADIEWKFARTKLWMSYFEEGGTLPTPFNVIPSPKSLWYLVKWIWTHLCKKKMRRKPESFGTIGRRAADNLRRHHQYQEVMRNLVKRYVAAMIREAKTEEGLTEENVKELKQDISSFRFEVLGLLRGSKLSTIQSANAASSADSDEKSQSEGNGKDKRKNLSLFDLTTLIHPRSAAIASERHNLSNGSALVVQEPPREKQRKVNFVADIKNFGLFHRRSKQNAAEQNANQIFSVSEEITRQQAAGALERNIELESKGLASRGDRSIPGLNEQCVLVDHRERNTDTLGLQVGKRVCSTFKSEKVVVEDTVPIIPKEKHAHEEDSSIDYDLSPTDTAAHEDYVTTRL

[10] = cytotoxicity toward NIH3T3 fibroblasts, dose response, counter-screen, cell-based, ATP luminescence, mouse fibroblasts (AID 2010); type: functional;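 note: cells exposed to compound for about 90 hours before reading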
Vero = test: host cell cytotoxicity of antiviral hits, dose response, cytotoxicity control for West Nile virus antiviral project, secondary assay (AID 1650); type: functional; conditions: Chlorocebus sabaeus
Estrogen receptor beta [11] = target: T3, Estrogen receptor beta (Homo sapiens, UniProt Q92731);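 note: recombinant ER-beta bound to coactivator SRC1 peptide in presence of estradiol agonist; inhibitors block coactivator peptide binding and lower the FRET signal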
T3 sequence (Q92731 whole entry): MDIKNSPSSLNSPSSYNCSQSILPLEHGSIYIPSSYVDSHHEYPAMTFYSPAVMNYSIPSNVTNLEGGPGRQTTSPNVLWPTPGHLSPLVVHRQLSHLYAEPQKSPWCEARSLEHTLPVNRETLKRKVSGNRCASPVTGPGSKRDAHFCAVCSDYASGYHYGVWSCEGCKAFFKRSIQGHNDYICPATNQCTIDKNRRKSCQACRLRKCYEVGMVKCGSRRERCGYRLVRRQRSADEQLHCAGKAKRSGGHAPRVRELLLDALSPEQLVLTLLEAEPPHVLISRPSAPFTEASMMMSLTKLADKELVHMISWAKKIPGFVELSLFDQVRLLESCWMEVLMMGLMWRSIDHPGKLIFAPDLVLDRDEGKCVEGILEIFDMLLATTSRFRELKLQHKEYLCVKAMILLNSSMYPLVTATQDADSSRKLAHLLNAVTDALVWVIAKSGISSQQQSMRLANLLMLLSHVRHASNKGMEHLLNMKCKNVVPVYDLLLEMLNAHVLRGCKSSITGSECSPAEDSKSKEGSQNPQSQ

Estrogen receptor beta [12] = target: T3, Estrogen receptor beta; test: ERβ–SRC-3 coactivator interaction inhibitors, confirmation, orthogonal assay, biochemical, ELISA, streptavidin-HRP readout (AID 1060)
Bcl-2-like protein 10 = target: T4, Bcl-2-like protein 10 (Homo sapiens, UniProt Q9HD36); test: displacers of TR3 peptide from Bcl-B, primary screen, selectivity assay for Bfl-1 inhibitor project, biochemical, fluorescence polarization, FITC-TR3 peptide (AID 748);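 note: fluorescence polarization from a fluorescein-labelled TR3 peptide binding purified Bcl-B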
T4 sequence (Q9HD36 whole entry): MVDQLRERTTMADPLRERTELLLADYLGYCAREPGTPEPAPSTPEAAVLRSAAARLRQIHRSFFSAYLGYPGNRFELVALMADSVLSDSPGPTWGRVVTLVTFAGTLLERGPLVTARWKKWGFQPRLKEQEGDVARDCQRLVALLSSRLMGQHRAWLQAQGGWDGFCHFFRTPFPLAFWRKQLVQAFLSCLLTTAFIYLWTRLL

[13] = target: T5, Carboxy-terminal domain RNA polymerase II polypeptide A small phosphatase 1 (Homo sapiens, UniProt Q9GZU7); test: inhibitors of CTDSP1, concentration-response testing, biochemical assay, absorbance-based, actives from ultra-high-throughput screening (AID 540297); type: functional
T5 sequence (Q9GZU7 whole entry): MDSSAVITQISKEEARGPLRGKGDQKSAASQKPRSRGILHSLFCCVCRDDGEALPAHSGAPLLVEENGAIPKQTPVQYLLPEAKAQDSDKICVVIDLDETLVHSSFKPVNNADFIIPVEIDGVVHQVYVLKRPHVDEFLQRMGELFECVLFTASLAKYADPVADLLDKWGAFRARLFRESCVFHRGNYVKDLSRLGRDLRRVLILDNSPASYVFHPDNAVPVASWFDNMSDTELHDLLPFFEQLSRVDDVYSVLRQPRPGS

Estrogen receptor = Estrogen receptor (Homo sapiens, UniProt P03372);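 note: potency for inhibiting coactivator peptide recruitment to the receptor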
Chain of Estrogen receptor (P03372 whole entry): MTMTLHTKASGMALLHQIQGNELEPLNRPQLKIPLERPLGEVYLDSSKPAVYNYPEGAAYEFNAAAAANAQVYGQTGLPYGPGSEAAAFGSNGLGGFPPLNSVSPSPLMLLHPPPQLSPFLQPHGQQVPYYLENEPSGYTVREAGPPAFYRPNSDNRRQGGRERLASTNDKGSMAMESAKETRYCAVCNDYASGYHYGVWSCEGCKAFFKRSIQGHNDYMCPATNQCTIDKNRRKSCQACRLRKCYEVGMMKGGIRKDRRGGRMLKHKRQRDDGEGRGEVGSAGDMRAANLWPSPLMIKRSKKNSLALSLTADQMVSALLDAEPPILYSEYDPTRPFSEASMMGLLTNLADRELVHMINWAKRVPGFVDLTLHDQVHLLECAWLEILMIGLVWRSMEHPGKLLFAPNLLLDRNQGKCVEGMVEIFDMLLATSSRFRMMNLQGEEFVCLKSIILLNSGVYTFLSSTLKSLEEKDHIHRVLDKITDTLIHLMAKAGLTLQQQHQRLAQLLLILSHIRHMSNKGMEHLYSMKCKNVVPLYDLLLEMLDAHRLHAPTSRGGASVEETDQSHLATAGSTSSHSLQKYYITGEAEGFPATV

[14] = target: T2, Short transient receptor potential channel 4; test: mouse TRPC4 channel inhibitors, dose response, cell-based, HEK293 TRPC4/mu-opioid, Fluo-4 calcium (AID 434942); type: functional;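 note: potency of inhibitors blocking the TRPC4 calcium response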
Aspartyl aminopeptidase = Aspartyl aminopeptidase (Plasmodium falciparum 3D7, UniProt Q8I2J3)
Chain of Aspartyl aminopeptidase (Q8I2J3 whole entry): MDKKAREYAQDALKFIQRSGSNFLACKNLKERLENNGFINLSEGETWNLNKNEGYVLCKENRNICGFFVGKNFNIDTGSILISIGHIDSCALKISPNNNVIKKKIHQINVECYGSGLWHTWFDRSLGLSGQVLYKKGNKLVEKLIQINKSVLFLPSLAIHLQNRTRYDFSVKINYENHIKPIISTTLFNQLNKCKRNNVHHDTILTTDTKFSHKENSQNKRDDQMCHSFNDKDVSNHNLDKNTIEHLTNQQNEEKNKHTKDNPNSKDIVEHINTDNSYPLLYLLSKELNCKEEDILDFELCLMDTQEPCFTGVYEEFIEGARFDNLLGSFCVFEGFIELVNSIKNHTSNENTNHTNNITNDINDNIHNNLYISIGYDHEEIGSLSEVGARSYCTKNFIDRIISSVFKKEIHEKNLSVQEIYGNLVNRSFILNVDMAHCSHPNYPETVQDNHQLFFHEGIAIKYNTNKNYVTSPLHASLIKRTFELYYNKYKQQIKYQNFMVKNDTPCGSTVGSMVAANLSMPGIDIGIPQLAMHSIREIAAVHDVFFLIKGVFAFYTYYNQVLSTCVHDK

Procathepsin L = Procathepsin L (Homo sapiens, UniProt P07711)
Chain of Procathepsin L (P07711 whole entry): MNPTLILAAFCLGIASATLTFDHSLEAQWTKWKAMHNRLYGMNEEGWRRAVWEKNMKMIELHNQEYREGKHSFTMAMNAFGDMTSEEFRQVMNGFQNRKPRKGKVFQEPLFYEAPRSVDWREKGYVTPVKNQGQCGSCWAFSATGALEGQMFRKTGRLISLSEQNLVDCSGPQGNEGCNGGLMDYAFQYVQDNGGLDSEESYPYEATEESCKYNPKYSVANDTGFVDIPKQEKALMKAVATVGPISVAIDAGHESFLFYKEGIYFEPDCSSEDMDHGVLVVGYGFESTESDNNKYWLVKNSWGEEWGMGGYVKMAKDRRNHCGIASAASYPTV

[15] = target: Scavenger receptor class B member 1 (Mus musculus, UniProt Q61009); test: inhibitors of SR-BI mediated HDL lipid uptake, dose response, ldlA[mSR-BI] cells, fluorescence, cherry pick (AID 493194); type: functional, cell-based;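 note: cellular uptake of fluorescent DiI-labeled HDL measured as cell fluorescence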
Chain of Scavenger receptor class B member 1 (Q61009 whole entry): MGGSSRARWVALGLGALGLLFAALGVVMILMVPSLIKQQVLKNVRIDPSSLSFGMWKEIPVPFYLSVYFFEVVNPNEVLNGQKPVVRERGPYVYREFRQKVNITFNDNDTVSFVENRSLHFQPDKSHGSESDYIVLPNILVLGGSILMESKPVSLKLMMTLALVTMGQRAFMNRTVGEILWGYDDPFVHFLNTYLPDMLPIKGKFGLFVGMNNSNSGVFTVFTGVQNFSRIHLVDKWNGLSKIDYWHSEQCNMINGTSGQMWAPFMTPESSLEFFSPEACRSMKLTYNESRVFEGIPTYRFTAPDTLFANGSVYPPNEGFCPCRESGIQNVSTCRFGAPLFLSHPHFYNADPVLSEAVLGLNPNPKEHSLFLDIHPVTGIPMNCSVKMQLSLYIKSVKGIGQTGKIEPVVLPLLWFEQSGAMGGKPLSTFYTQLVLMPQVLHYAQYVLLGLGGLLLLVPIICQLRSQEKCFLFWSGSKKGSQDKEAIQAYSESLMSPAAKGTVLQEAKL

[16] = target: T6, E3 ubiquitin-protein ligase XIAP (Homo sapiens, UniProt P98170); test: XIAP antagonists, biochemical, IAP family, fluorescence polarization (AID 1018); type: functional
T6 sequence (P98170 whole entry): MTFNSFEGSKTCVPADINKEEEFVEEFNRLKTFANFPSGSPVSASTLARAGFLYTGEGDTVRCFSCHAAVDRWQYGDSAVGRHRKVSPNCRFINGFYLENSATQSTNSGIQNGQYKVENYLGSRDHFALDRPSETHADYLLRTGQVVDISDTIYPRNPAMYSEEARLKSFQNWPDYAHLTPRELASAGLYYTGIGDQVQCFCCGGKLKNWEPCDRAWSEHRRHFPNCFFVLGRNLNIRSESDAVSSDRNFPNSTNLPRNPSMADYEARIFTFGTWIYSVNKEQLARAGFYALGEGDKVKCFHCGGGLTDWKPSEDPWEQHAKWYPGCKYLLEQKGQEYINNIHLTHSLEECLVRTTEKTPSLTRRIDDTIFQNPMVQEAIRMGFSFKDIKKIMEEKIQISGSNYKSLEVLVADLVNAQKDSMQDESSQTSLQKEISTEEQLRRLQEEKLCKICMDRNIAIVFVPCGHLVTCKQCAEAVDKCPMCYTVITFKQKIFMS

[17] = HepG2 cell cytotoxicity, dose response, cytotoxicity control, ATP luminescence, cherry-pick, activator set 2 (AID 1053143); type: functional, cell-based
[18] = target: T6, E3 ubiquitin-protein ligase XIAP; test: Counter Screen using XIAP-Bir3 for Chemical Antagonists of Bir1/2 domains of IAP-family anti-apoptotic proteins. [Related pubchem assays (depositor defined):AID1018, AID1449, AID1514, AID1638, AID1749, AID1750, AID488957, AID488963]
Hexokinase HKDC1 = target: T7, Hexokinase HKDC1 (Homo sapiens, UniProt Q2TB90); test: HKDC1 hexokinase inhibitors, dose response, biochemical, W721R variant (AID 504729); type: functional
T7 sequence (Q2TB90 whole entry): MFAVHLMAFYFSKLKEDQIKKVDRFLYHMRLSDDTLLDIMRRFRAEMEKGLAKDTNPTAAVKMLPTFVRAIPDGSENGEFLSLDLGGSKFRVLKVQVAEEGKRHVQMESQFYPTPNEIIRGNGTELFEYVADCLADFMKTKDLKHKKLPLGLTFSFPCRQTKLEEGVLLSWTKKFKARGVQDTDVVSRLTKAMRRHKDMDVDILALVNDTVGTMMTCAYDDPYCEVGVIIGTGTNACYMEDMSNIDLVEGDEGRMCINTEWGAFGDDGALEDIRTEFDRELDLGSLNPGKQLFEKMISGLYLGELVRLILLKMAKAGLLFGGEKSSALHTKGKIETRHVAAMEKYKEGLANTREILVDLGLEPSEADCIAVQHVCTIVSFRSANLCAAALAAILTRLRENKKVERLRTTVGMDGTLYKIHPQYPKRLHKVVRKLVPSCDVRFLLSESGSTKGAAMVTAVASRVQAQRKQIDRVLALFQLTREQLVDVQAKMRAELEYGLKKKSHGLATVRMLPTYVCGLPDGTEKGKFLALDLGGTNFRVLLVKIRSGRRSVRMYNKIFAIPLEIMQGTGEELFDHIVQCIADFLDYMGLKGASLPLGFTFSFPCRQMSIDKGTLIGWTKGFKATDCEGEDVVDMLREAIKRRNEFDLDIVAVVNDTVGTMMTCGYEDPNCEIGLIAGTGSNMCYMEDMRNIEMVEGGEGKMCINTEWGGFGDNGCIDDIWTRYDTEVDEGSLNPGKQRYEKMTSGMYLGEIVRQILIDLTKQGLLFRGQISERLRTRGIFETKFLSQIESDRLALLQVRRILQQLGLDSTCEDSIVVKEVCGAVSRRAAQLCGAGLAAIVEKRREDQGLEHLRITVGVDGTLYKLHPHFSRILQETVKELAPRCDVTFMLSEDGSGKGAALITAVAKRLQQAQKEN

Genome polyprotein = Genome polyprotein (dengue virus type 2, UniProt P29990); test: Dengue-2 NS5 methyltransferase inhibitors, primary screen, biochemical, confirmation dose response (AID 588689); type: functional
Chain of Genome polyprotein (P29990 2492-3391 limits assumed): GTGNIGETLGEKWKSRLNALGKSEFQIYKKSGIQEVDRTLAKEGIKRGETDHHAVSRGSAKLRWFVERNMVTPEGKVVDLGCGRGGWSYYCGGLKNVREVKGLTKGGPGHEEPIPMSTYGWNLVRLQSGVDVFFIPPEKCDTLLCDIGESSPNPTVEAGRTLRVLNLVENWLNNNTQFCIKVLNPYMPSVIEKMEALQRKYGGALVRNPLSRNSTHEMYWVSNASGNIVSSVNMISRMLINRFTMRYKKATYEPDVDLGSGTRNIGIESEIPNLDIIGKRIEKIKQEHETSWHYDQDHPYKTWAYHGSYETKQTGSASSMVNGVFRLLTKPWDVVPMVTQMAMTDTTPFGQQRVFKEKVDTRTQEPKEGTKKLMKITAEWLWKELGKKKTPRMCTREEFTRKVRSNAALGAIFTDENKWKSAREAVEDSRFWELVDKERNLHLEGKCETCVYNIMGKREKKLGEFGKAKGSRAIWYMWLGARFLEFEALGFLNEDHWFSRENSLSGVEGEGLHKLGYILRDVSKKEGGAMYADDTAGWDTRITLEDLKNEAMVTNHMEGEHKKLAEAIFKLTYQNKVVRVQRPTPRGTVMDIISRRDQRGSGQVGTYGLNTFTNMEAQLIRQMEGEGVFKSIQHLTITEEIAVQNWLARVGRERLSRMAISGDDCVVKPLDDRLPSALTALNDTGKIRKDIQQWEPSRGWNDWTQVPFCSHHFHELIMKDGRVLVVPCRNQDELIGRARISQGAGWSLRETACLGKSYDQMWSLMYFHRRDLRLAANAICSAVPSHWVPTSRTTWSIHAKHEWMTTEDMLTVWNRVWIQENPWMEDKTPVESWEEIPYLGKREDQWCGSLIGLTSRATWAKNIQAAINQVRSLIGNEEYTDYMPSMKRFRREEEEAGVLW

Chain of Lysosomal acid glucosylceramidase (P04062 whole entry): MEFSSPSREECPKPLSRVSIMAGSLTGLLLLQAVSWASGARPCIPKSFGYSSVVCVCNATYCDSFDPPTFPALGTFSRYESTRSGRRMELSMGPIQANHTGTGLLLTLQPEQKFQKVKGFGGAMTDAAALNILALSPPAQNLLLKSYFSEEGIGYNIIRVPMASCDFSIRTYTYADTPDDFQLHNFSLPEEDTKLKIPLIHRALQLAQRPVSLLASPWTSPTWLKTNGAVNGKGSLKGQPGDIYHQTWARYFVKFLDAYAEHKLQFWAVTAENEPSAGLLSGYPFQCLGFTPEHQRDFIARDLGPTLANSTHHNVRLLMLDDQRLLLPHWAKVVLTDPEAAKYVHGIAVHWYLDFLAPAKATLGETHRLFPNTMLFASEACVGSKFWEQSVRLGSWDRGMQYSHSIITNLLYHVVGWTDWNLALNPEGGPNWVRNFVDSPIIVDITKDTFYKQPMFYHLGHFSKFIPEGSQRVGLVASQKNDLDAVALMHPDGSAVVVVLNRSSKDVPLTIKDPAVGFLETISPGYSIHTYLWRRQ

EC50 [1]: > 50 µM (not active)
Compound: Cc1ccc(C)n1-c1ccc(C(=O)NCC2CCCO2)cc1 (stereo unspecified)

Compound: CCCOc1ccc(C(=S)NCc2ccc(F)cc2)cc1
IC50 [2]: 15.1 µM (active)
IC50 [3]: 19.5 µM (active)

EC50 [1]: > 50 µM (not active)
Compound: Cc1c(C)c2cc3c4c(oc3c(C)c2oc1=O)CCCC4

Compound: Nc1c(C(=O)c2ccccc2)sc2nsc(SCCN3CCCC3)c12
EC50 (BJ [4]): 7.28 µM (active)
EC50 [5]: 0.636 µM (active)
EC50 (BJ [6]): 12.8 µM (active)
EC50 [7]: 15.1 µM (active)
EC50 (BJ [8]): 12.5 µM (active)
EC50 [9]: 5.96 µM (active)
EC50 [10]: 14.9 µM (active)

Compound: O=S(=O)(Nc1cc(Sc2cccc3cccnc23)c(O)c2ccccc12)c1ccccc1
EC50 (BJ [4]): 22.1 µM (inconclusive)
EC50 (BJ [6]): 12.1 µM (inconclusive)
EC50 [7]: 16.1 µM (active)
EC50 (BJ [8]): > 75 µM (inconclusive)
CC50 (Vero): 6.77 µM (active)

IC50 (Estrogen receptor beta [11]): 16.7 µM (active)
IC50 (Estrogen receptor beta [12]): < 0.023 µM (not active)
IC50 (Bcl-2-like protein 10): > 100 µM (inactive)
IC50 [13]: 15.3 µM (active)
IC50 (Estrogen receptor): 37 µM (not active)
Compound: Cc1cc(Cl)ccc1OCC(=O)OC(C)C(=O)N(C)C (stereo unspecified)

IC50 (Estrogen receptor beta [11]): 11.2 µM (active)
IC50 (Estrogen receptor beta [12]): 0.35 µM (not active)
IC50 (Estrogen receptor): 30 µM (not active)
Compound: COc1ccc(-c2nnc(SC/C(O)=C(/C#N)C(C)=N)o2)cc1

EC50 [14]: 5.31 µM (active)
Compound: COc1ccc(C(c2nnnn2C2CCCC2)N2CCN(c3ccccc3)CC2)cc1 (stereo unspecified)

IC50 (Aspartyl aminopeptidase): 0.603 µM (active)
IC50 (Procathepsin L): > 59.6 µM (not active)
Compound: OC(Cn1cnnc1)c1ccccc1 (stereo unspecified)

AC50 [15]: 2.36 µM (active)
Compound: N#Cc1sc2nc(C3CC3)cc(-c3ccc(Cl)cc3)c2c1N

AC50 [15]: 27.5 µM (active)
Compound: CCc1ccc(NC(=O)C2CCCN(S(=O)(=O)c3ccc4nc(O)ccc4c3)C2)cc1 (stereo unspecified)

Compound: COc1cc(OC)cc(-c2nc3cc(C)ccc3o2)c1
IC50 [16]: > 100 µM (not active)
AC50 [17]: 26 µM (active)
IC50 [18]: > 100 µM (inactive)

Compound: COC1=CC(=O)C(C2CC(=O)c3c(O)cc(O)cc3O2)=CC1=O (stereo unspecified)
IC50 (Hexokinase HKDC1): 11.5 µM (active)
IC50 (Genome polyprotein): 9.23 µM (active)

IC50 [16]: > 100 µM (not active)
IC50 [18]: > 100 µM (inactive)
IC50 [13]: 10.3 µM (active)
Compound: O=C(O)c1cccc(N2C(=O)C3CC=C(Cl)CC3C2=O)c1 (stereo unspecified)

Compound: COc1ccc(OC)c(C(=S)NCc2ccc(F)cc2)c1
IC50 [2]: 13.5 µM (active)
IC50 [3]: 8.78 µM (active)

IC50 (Aspartyl aminopeptidase): 1.46 µM (active)
IC50 (Procathepsin L): > 59.6 µM (not active)
Compound: O=C(Nc1ccc(F)c(Cl)c1)Nn1cnnc1
